Our source for the DC50 and Dmax values is patent US12559506B2, “Indazole based compounds and associated methods of use” (Arvinas Operations, Inc., priority 2021, dated 2026).

Each structure is given as a SMILES string. Where two headings read alike, the source gives them in different places.

Assay [1] concerns the target T1, G2019S LRRK2 (Homo sapiens, UniProt Q5S007, G2019S).
T1 construct: expressed in transfected cells; host or cells: HEK293 (ATCC CRL-1573), transient transfection, mammalian expression vector with ubiquitin promoter
The assay can be described thus: LRRK2 degradation assay, HiBit-tagged G2019S LRRK2 expressed from plasmid in HEK293 cells (Nano-Glo Dual-Luciferase). It counts as cell-based. The settings on record: 24 hours. In short, it runs like this:
(§1)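 HEK293 cells co-transfected with C-terminal HiBiT-tagged LRRK2 (WT or G2019S, ubiquitin promoter) and firefly luciferase, then dosed 24 h at 37 °C. HiBiT/firefly ratio normalized to DMSO median; DC50 and Dmax from per-plate curve fits, six replicates over two days.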

Assay [2] has as its target T2, wildtype LRRK2 (Homo sapiens, UniProt Q5S007).
T2 construct: expressed in transfected cells; host or cells: HEK293 (ATCC CRL-1573), transient transfection, mammalian expression vector with ubiquitin promoter
The assay can be described thus: LRRK2 degradation assay, HiBit-tagged wildtype LRRK2 expressed from plasmid in HEK293 cells (Nano-Glo Dual-Luciferase). It counts as cell-based. The settings on record: 24 hours; for Dmax: read-out: **WT Dmax (%); for DC50: read-out: *WT DC50. In outline: as §1
A general note: HiBiT is a short tag that completes a luciferase, so light tracks the accessible tagged protein.

Setting [3] is: HiBit-tagged G2019S LRRK2 in HEK293 cells.
The mark [4] stands for this setting: HiBit-tagged wildtype LRRK2 in HEK293 cells.
Where [5] appears, read: HiBit-tagged G2019S LRRK2, HEK293 cells.
[6] abbreviates: HiBit-tagged wildtype LRRK2, HEK293 cells.

In general, DC50 refers to the midpoint of the concentration-degradation curve. By Dmax is commonly meant the greatest extent of degradation seen.

T2 sequence (Q5S007 whole entry): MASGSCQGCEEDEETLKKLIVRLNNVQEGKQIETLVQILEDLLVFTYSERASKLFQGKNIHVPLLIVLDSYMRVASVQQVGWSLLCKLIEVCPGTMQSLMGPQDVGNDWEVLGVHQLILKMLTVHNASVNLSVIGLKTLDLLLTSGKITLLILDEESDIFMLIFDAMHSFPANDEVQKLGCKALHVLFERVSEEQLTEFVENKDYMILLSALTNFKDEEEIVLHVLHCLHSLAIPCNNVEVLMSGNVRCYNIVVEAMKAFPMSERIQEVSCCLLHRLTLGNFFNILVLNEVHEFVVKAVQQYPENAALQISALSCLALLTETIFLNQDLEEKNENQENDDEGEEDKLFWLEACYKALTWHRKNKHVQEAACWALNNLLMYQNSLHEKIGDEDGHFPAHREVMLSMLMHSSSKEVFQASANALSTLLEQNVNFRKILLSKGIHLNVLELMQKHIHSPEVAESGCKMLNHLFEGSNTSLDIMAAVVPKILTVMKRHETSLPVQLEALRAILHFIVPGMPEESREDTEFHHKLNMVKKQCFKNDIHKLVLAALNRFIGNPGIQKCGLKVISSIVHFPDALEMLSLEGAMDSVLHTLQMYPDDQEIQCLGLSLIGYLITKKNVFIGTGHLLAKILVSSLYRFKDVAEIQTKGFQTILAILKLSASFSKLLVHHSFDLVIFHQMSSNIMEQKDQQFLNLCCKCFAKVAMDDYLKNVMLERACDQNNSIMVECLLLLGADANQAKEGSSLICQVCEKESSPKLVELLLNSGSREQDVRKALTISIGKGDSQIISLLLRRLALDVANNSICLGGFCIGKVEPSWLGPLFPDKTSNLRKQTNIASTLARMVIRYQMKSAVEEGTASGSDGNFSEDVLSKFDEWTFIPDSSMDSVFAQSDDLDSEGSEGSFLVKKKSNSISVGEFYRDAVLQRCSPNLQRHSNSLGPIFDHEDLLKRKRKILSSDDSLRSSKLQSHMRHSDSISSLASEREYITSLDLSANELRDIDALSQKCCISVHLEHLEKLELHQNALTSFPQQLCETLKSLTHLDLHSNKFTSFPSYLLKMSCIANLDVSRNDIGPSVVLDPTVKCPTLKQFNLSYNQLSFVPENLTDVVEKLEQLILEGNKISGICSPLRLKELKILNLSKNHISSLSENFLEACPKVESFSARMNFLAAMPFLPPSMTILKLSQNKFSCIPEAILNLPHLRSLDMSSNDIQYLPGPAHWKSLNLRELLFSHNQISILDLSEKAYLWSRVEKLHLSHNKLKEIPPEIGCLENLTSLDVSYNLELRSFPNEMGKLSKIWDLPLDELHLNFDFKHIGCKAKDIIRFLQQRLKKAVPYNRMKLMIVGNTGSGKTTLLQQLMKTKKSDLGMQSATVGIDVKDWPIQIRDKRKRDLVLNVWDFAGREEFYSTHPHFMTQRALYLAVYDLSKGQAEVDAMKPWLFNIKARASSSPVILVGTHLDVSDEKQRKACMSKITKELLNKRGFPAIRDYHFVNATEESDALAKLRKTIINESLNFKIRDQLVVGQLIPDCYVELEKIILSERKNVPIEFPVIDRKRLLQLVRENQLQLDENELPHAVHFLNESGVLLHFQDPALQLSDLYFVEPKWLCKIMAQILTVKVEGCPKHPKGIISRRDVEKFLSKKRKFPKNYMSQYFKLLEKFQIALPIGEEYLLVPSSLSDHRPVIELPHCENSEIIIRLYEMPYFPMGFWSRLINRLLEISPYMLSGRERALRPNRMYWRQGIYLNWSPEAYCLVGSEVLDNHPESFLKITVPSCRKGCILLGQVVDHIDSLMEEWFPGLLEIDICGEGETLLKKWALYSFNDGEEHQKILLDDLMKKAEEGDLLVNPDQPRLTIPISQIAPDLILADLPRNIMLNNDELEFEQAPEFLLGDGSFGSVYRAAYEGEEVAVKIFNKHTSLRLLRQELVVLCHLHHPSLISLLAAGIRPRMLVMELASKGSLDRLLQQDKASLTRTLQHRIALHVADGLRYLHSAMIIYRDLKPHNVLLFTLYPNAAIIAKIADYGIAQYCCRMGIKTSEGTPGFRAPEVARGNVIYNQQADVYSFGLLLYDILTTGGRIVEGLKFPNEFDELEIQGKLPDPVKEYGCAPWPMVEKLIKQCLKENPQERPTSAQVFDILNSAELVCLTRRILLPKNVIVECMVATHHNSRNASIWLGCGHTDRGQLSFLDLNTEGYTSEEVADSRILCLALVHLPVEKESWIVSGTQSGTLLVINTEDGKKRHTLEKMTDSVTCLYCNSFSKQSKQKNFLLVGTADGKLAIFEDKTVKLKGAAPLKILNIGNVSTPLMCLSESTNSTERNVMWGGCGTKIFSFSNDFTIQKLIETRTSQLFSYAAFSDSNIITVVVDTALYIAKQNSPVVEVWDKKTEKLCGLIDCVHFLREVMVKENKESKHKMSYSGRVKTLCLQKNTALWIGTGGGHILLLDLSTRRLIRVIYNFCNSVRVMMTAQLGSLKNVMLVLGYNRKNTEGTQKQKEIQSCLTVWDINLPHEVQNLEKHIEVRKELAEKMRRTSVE
T1 sequence (Q5S007 whole entry G2019S): as the sequence (Q5S007 whole entry) above, with G2019S counted along it

In the case of `C[C@H]1CN(c2cc(-c3[nH]nc4ccc(OC5(C)CC5)cc34)ncn2)CCN1CC1CCN(CC2CCN(c3ccc4c(c3)CN(C3CCC(=O)NC3=O)C4=O)CC2)CC1` (stereo partly drawn) [Compound 109, 3-[5-[4-[[4-[[(2S)-2-methyl-4-[6-[5-(1-methylcyclopropoxy)-2H-indazol-3-yl]pyrimidin-4-yl]piperazin-1-yl]methyl]-1-piperidyl]methyl]-1-piperidyl]-1-oxo-isoindolin-2-yl]piperidine-2,6-dione], the DC50 in assay [1] (setting [3]) and in assay [2] (setting [4]) was under 10 nM in each case. Also, the Dmax in assay [1] (setting [3]) and in assay [2] (setting [4]) was 50 to 70% in each case.

In assay [1] (setting [3]), `CC1(Oc2ccc3n[nH]c(-c4cc(N5CCN(CC6(F)CCN(C(=O)C7CCN(c8ccc9c(c8)C(=O)N(C8CCC(=O)NC8=O)C9=O)CC7)CC6)CC5)ncn4)c3c2)CC1` (centres unmarked) [Compound 96, 2-(2,6-dioxo-3-piperidyl)-5-[4-[4-fluoro-4-[[4-[6-[5-(1-methylcyclopropoxy)-1H-indazol-3-yl]pyrimidin-4-yl]piperazin-1-yl]methyl]piperidine-1-carbonyl]-1-piperidyl]isoindoline-1,3-dione] yielded a DC50 of under 10 nM and a Dmax of 50 to 70%. Moreover, in assay [2] (setting [4]), the Dmax was in the range of 50 to 70% and the DC50 was under 10 nM.

In assay [1] (setting [3]), `CC1(Oc2ccc3[nH]nc(-c4ccnc(N5CC(CN6CCN(CC7CCN(c8ccc9c(c8)C(=O)N(C8CCC(=O)NC8=O)C9=O)CC7)CC6)C5)c4)c3c2)CC1` (centres unmarked) [Compound 128, 2-(2,6-dioxopiperidin-3-yl)-5-[4-({4-[(1-{4-[5-(1-methylcyclopropoxy)-1H-indazol-3-yl]pyridin-2-yl}azetidin-3-yl)methyl]piperazin-1-yl}methyl)piperidin-1-yl]-2,3-dihydro-1H-isoindole-1,3-dione] displayed a DC50 of under 10 nM and a Dmax of 50 to 70%. Besides, in assay [2] (setting [4]), the Dmax fell in the range of 50 to 70% and the half-maximal degradation concentration (DC50) is under 10 nM.

For the compound `CC1(Oc2ccc3n[nH]c(-c4cc(N5CCN(CC6CC7(CCN(CC8CCN(c9ccc%10c(c9)C(=O)N(C9CCC(=O)NC9=O)C%10=O)CC8)CC7)C6)CC5)ncn4)c3c2)CC1` (centres unmarked) [Compound 177, 2-(2,6-dioxo-3-piperidyl)-5-[4-[[2-[[4-[6-[5-(1-methylcyclopropoxy)-2H-indazol-3-yl]pyrimidin-4-yl]piperazin-1-yl]methyl]-7-azaspiro[3.5]nonan-7-yl]methyl]-1-piperidyl]isoindoline-1,3-dione], the DC50 in assay [1] (setting [5]) and in assay [2] (setting [6]) was 10 to 50 nM each time. For the same compound, the Dmax in assay [1] (setting [5]) and in assay [2] (setting [6]) was 50 to 70% throughout.

Consider `CC1(Oc2ccc3[nH]nc(-c4ccnc(N5CCN(CC6(F)CCN(C(=O)C7CCN(c8ccc9c(c8)C(=O)N(C8CCC(=O)NC8=O)C9=O)CC7)CC6)CC5)c4)c3c2)CC1` (centres unmarked) [Compound 97, 2-(2,6-dioxo-3-piperidyl)-5-[4-[4-fluoro-4-[[4-[4-[5-(1-methylcyclopropoxy)-1H-indazol-3-yl]-2-pyridyl]piperazin-1-yl]methyl]piperidine-1-carbonyl]-1-piperidyl]isoindoline-1,3-dione], for which, in assay [1] (setting [3]), the DC50 was under 10 nM and the Dmax is under 50%. Further, in assay [2] (setting [4]), the Dmax was in the range of 50 to 70% and the DC50 is under 10 nM.

On to `CC1(Oc2ccc3[nH]nc(-c4cc(N5C[C@@H]6[C@@H](CN7CCN(CC8CCN(c9ccc%10c(c9)C(=O)N(C9CCC(=O)NC9=O)C%10=O)CC8)CC7)[C@@H]6C5)ncn4)c3c2)CC1` (some centres unmarked) [Compound 75, 2-(2,6-dioxopiperidin-3-yl)-5-{4-[(4-{[(1r,5s,6s)-3-{6-[5-(1-methylcyclopropoxy)-1H-indazol-3-yl]pyrimidin-4-yl}-3-azabicyclo[3.1.0]hexan-6-yl]methyl}piperazin-1-yl)methyl]piperidin-1-yl}-2,3-dihydro-1H-isoindole-1,3-dione], for which, in assay [1] (setting [3]), the DC50 was under 10 nM and the Dmax is at least 70%. For the same compound, in assay [2] (setting [4]), the Dmax is at least 70% and the DC50 was under 10 nM.

Take `CC1(Oc2ccc3[nH]nc(-c4cc(N5CC[C@H](CN6CCN(CC7CCN(c8ccc9c(c8)C(=O)N(C8CCC(=O)NC8=O)C9=O)CC7)CC6)C5)ncn4)c3c2)CC1` (stereo partly drawn) [Compound 166, 2-(2,6-dioxo-3-piperidyl)-5-[4-[[4-[[(3R)-1-[6-[5-(1-methylcyclopropoxy)-1H-indazol-3-yl]pyrimidin-4-yl]pyrrolidin-3-yl]methyl]piperazin-1-yl]methyl]-1-piperidyl]isoindoline-1,3-dione]: the DC50 in assay [1] (setting [5]) and in assay [2] (setting [6]) was under 10 nM throughout. Besides, the Dmax in assay [1] (setting [5]) and in assay [2] (setting [6]) was under 50% throughout.

As to `C[C@H]1CN(c2cc(-c3n[nH]c4ccc(OC5(C)CC5)cc34)ncn2)CCN1CC1CCN(CCCNc2cccc3c2C(=O)N(C2CCC(=O)NC2=O)C3=O)CC1` (stereo partly drawn) [Compound 140, 2-(2,6-dioxo-3-piperidyl)-4-[3-[4-[[(2S)-2-methyl-4-[6-[5-(1-methylcyclopropoxy)-2H-indazol-3-yl]pyrimidin-4-yl]piperazin-1-yl]methyl]-1-piperidyl]propylamino]isoindoline-1,3-dione], in assay [1] (setting [3]), the DC50 was under 10 nM and the Dmax was under 50%. In assay [2] (setting [4]), the Dmax is under 50% and the DC50 was under 10 nM.

In assay [1] (setting [3]), `C[C@H]1CN(c2cc(-c3n[nH]c4ccc(OC5(C)CC5)cc34)ncn2)CCN1CCN1CCN(C(=O)C2CCN(c3ccc4c(c3)C(=O)N(C3CCC(=O)NC3=O)C4=O)CC2)CC1` (stereo partly drawn) [Compound 56, 2-(2,6-dioxo-3-piperidyl)-5-[4-[4-[2-[(2S)-2-methyl-4-[6-[5-(1-methylcyclopropoxy)-2H-indazol-3-yl]pyrimidin-4-yl]piperazin-1-yl]ethyl]piperazine-1-carbonyl]-1-piperidyl]isoindoline-1,3-dione] registered a DC50 of under 10 nM and a Dmax of at least 70%. Also, in assay [2] (setting [4]), the Dmax was at least 70% and the DC50 is under 10 nM.

In assay [1] (setting [5]), `CC1(Oc2ccc3n[nH]c(-c4cc(N5CCN(Cc6ccc(CN7CCN(c8ccc9c(c8)C(=O)N(C8CCC(=O)NC8=O)C9=O)CC7)nn6)CC5)ncn4)c3c2)CC1` (centres unmarked) [Compound 172, 2-(2,6-dioxo-3-piperidyl)-5-[4-[[6-[[4-[6-[5-(1-methylcyclopropoxy)-2H-indazol-3-yl]pyrimidin-4-yl]piperazin-1-yl]methyl]pyridazin-3-yl]methyl]piperazin-1-yl]isoindoline-1,3-dione] gave a DC50 of under 10 nM and a Dmax of 50 to 70%. In addition, in assay [2] (setting [6]), the Dmax lay within 50 to 70% and the DC50 was under 10 nM.

In assay [1] (setting [3]), `C[C@H]1CN(c2cc(-c3n[nH]c4ccc(OC5(C)CC5)cc34)ncn2)CCN1CCC1CCN(CC2CCN(c3cccc4c3C(=O)N(C3CCC(=O)NC3=O)C4=O)CC2)CC1` (stereo partly drawn) [Compound 138, 2-(2,6-dioxo-3-piperidyl)-4-[4-[[4-[2-[(2S)-2-methyl-4-[6-[5-(1-methylcyclopropoxy)-2H-indazol-3-yl]pyrimidin-4-yl]piperazin-1-yl]ethyl]-1-piperidyl]methyl]-1-piperidyl]isoindoline-1,3-dione] returned a DC50 of under 10 nM and a Dmax of at least 70%. In assay [2] (setting [4]), the Dmax is at least 70% and the DC50 lay within 10 to 50 nM.
